# Results taken from patent US9540399B2, “Quinolone derivatives” (priority 2013, dated 2017).
# Experiments:
# Assay in all cases: Bacterial growth minimal inhibitory concentration, microdilution
# Type in all cases: cell-based
# [1] = tested on: Acinetobacter baumanii T6474; settings: Acinetobacter baumannii, multiply-resistant, quinolone-resistant strain, cation-adjusted Mueller Hinton Broth
# Experimental: (§1) Minimal Inhibitory Concentrations (MICs; mg/l) were determined in cation-adjusted Mueller Hinton Broth by a microdilution method following the description given in “Methods for Dilution Antimicrobial Susceptibility Tests for Bacteria that Grow Aerobically”, Approved standard, 7th ed., Clinical and Laboratory Standards Institute (CLSI) Document M7-A7, Wayne, Pa., USA, 2006.
# (§2) All Example compounds were tested against several Gram positive and especially Gram negative bacteria. […] Staphylococcus aureus A798, Klebsiella pneumoniae A651 and Acinetobacter baumanii T6474 are multiply-resistant strains (in particular quinolone-resistant), while Moraxella catarrhalis A894 and E. coli ATCC 25922 are quinolone-sensitive strains.
# E. coli ATCC 25922 = settings: Escherichia coli, ATCC25922; quinolone-sensitive strain; cation-adjusted Mueller Hinton Broth
# Experimental: as §1, §2
# [2] = tested on: Klebsiella pneumoniae A651; settings: multiply-resistant, quinolone-resistant strain, cation-adjusted Mueller Hinton Broth, read-out: MIC for K. pneumoniae A651
# Experimental: as §1, §2
# [3] = tested on: Moraxella catarrhalis A894; settings: quinolone-sensitive strain, cation-adjusted Mueller Hinton Broth
# Experimental: as §1, §2
# [4] = tested on: Staphylococcus aureus A798; settings: multiply-resistant, quinolone-resistant strain, cation-adjusted Mueller Hinton Broth, read-out: MIC for S. aureus A798
# Experimental: as §1, §2
SMILES,MIC [1] [µg/mL],MIC (E. coli ATCC 25922) [µg/mL],MIC [2] [µg/mL],MIC [3] [µg/mL],MIC [4] [µg/mL]
"O=C1CSc2ccc(CNC3CCN(CCc4nc5c(cc4F)c(=O)c(C(=O)O)cn5C4CC4)CC3)nc2N1 [Example 3, 1-Cyclopropyl-6-fluoro-4-oxo-7-(2-{4-[(3-oxo-3,4-dihydro-2H-pyrido[3,2-b][1,4]thiazin-6-ylmethyl)-amino]-piperidin-1-yl}-ethyl)-1,4-dihydro-[1,8]naphthyridine-3-carboxylic acid]",4,0.25,1,0.5,2
"O=C1CSc2ccc(CNCCN3CCN(c4nc5c(cc4F)c(=O)c(C(=O)O)cn5C4CC4)CC3)nc2N1 [Example 4, 1-Cyclopropyl-6-fluoro-4-oxo-7-(4-{2-[(3-oxo-3,4-dihydro-2H-pyrido[3,2-b][1,4]thiazin-6-ylmethyl)-amino]-ethyl}-piperazin-1-yl)-1,4-dihydro-[1,8]naphthyridine-3-carboxylic acid]",2,1,2,0.25,> 8
"O=C1CSc2ccc(CNCC3CCN(c4nc5c(cc4F)c(=O)c(C(=O)O)cn5C4CC4)CC3)nc2N1 [Example 7, 1-Cyclopropyl-6-fluoro-4-oxo-7-(4-{[(3-oxo-3,4-dihydro-2H-pyrido[3,2-b][1,4]thiazin-6-ylmethyl)-amino]-methyl}-piperidin-1-yl)-1,4-dihydro-[1,8]naphthyridine-3-carboxylic acid]",2,0.5,4,0.031,> 8
"O=C1COc2ccc(CNC[C@H]3CC[C@H](Nc4nc5c(cc4F)c(=O)c(C(=O)O)cn5C4CC4)CC3)nc2N1 [Example 8, trans-1-Cyclopropyl-6-fluoro-4-oxo-7-(4-{[(3-oxo-3,4-dihydro-2H-pyrido[3,2-b][1,4]oxazin-6-ylmethyl)-amino]-methyl}-cyclohexylamino)-1,4-dihydro-[1,8]naphthyridine-3-carboxylic acid]",> 8,0.5,8,0.25,> 8
"O=C1CSc2ccc(CNCC3CCN(Cc4nc5c(cc4F)c(=O)c(C(=O)O)cn5C4CC4)CC3)nc2N1 [Example 9, 1-Cyclopropyl-6-fluoro-4-oxo-7-(4-{[(3-oxo-3,4-dihydro-2H-pyrido[3,2-b][1,4]thiazin-6-ylmethyl)-amino]-methyl}-piperidin-1-ylmethyl)-1,4-dihydro-[1,8]naphthyridine-3-carboxylic acid]",8,1,2,1,> 8
"O=C1CSc2ccc(CNCCN3CCN(c4cc5c(cc4F)c(=O)c(C(=O)O)cn5C4CC4)CC3)nc2N1 [Example 11, 1-Cyclopropyl-6-fluoro-4-oxo-7-(4-{2-[(3-oxo-3,4-dihydro-2H-pyrido[3,2-b][1,4]thiazin-6-ylmethyl)-amino]-ethyl}-piperazin-1-yl)-1,4-dihydro-quinoline-3-carboxylic acid]",> 8,2,8,1,8
"O=C1COc2ccc(CNCCN3CCN(c4nc5c(cc4F)c(=O)c(C(=O)O)cn5C4CC4)CC3)nc2N1 [Example 12, 1-Cyclopropyl-6-fluoro-4-oxo-7-(4-{2-[(3-oxo-3,4-dihydro-2H-pyrido[3,2-b][1,4]oxazin-6-ylmethyl)-amino]-ethyl}-piperazin-1-yl)-1,4-dihydro-[1,8]naphthyridine-3-carboxylic acid]",8,2,8,1,> 8

# The next compounds have a lower MIC [1] than those just listed; values first:
MIC [1] [µg/mL],MIC (E. coli ATCC 25922) [µg/mL],MIC [2] [µg/mL],MIC [3] [µg/mL],MIC [4] [µg/mL],SMILES
0.125,0.25,0.5,0.125,1,"O=C1CSc2ccc(CNC[C@H]3CC[C@H](Nc4nc5c(cc4F)c(=O)c(C(=O)O)cn5C4CC4)CC3)nc2N1 [Example 1, trans-1-Cyclopropyl-6-fluoro-4-oxo-7-(4-{[(3-oxo-3,4-dihydro-2H-pyrido[3,2-b][1,4]thiazin-6-ylmethyl)-amino]-methyl}-cyclohexylamino)-1,4-dihydro-[1,8]naphthyridine-3-carboxylic acid]"
0.5,0.5,1,0.25,4,"O=C1CSc2ccc(CN[C@H]3CC[C@H](Nc4nc5c(cc4F)c(=O)c(C(=O)O)cn5C4CC4)CC3)nc2N1 [Example 2, trans-1-Cyclopropyl-6-fluoro-4-oxo-7-{4-[(3-oxo-3,4-dihydro-2H-pyrido[3,2-b][1,4]thiazin-6-ylmethyl)-amino]-cyclohexylamino}-1,4-dihydro-[1,8]naphthyridine-3-carboxylic acid]"
1,0.5,2,0.125,8,"O=C1CSc2ccc(CNCCC3CCN(c4nc5c(cc4F)c(=O)c(C(=O)O)cn5C4CC4)CC3)nc2N1 [Example 5, 1-Cyclopropyl-6-fluoro-4-oxo-7-(4-{2-[(3-oxo-3,4-dihydro-2H-pyrido[3,2-b][1,4]thiazin-6-ylmethyl)-amino]-ethyl}-piperidin-1-yl)-1,4-dihydro-[1,8]naphthyridine-3-carboxylic acid]"
0.5,2,2,0.5,> 8,"O=C1CSc2ccc(CN3CCC(CCNc4nc5c(cc4F)c(=O)c(C(=O)O)cn5C4CC4)CC3)nc2N1 [Example 6, 1-Cyclopropyl-6-fluoro-4-oxo-7-{2-[1-(3-oxo-3,4-dihydro-2H-pyrido[3,2-b][1,4]thiazin-6-ylmethyl)-piperidin-4-yl]-ethylamino}-1,4-dihydro-[1,8]naphthyridine-3-carboxylic acid]"
0.25,0.5,1,0.063,4,"O=C1CSc2ccc(CNC3CCN(c4nc5c(cc4F)c(=O)c(C(=O)O)cn5C4CC4)CC3)nc2N1 [Example 10, 1-Cyclopropyl-6-fluoro-4-oxo-7-{4-[(3-oxo-3,4-dihydro-2H-pyrido[3,2-b][1,4]thiazin-6-ylmethyl)-amino]-piperidin-1-yl}-1,4-dihydro-[1,8]naphthyridine-3-carboxylic acid]"
0.125,0.063,0.25,0.031,1,"Cn1cc(C(=O)O)c(=O)c2cc(F)c(N[C@H]3CC[C@H](CNCc4ccc5c(n4)NC(=O)CS5)CC3)nc21 [Example 13, trans-6-Fluoro-1-methyl-4-oxo-7-(4-{[(3-oxo-3,4-dihydro-2H-pyrido[3,2-b][1,4]thiazin-6-ylmethyl)-amino]-methyl}-cyclohexylamino)-1,4-dihydro-[1,8]naphthyridine-3-carboxylic acid]"
1,0.125,1,0.063,8,"Cn1cc(C(=O)O)c(=O)c2cc(F)c(N[C@H]3CC[C@H](CNCc4ccc5c(n4)NC(=O)CO5)CC3)nc21 [Example 14, trans-6-Fluoro-1-methyl-4-oxo-7-(4-{[(3-oxo-3,4-dihydro-2H-pyrido[3,2-b][1,4]oxazin-6-ylmethyl)-amino]-methyl}-cyclohexylamino)-1,4-dihydro-[1,8]naphthyridine-3-carboxylic acid]"
0.063,0.125,0.5,0.031,1,"CCn1cc(C(=O)O)c(=O)c2cc(F)c(N[C@H]3CC[C@H](CNCc4ccc5c(n4)NC(=O)CS5)CC3)nc21 [Example 15, trans-1-Ethyl-6-fluoro-4-oxo-7-(4-{[(3-oxo-3,4-dihydro-2H-pyrido[3,2-b][1,4]thiazin-6-ylmethyl)-amino]-methyl}-cyclohexylamino)-1,4-dihydro-[1,8]naphthyridine-3-carboxylic acid]"
0.5,0.25,1,0.125,2,"Cn1cc(C(=O)O)c(=O)c2cc(F)c(N3CCC(CCNCc4ccc5c(n4)NC(=O)CO5)CC3)nc21 [Example 16, 6-Fluoro-1-methyl-4-oxo-7-(4-{2-[(3-oxo-3,4-dihydro-2H-pyrido[3,2-b][1,4]oxazin-6-ylmethyl)-amino]-ethyl}-piperidin-1-yl)-1,4-dihydro-[1,8]naphthyridine-3-carboxylic acid]"
0.125,0.125,0.5,0.031,0.5,"Cn1cc(C(=O)O)c(=O)c2cc(F)c(N3CCC(CCNCc4ccc5c(n4)NC(=O)CS5)CC3)nc21 [Example 17, 6-Fluoro-1-methyl-4-oxo-7-(4-{2-[(3-oxo-3,4-dihydro-2H-pyrido[3,2-b][1,4]thiazin-6-ylmethyl)-amino]-ethyl}-piperidin-1-yl)-1,4-dihydro-[1,8]naphthyridine-3-carboxylic acid]"
